Experimental data: patent US20240228925A1, “APPARATUS AND METHOD FOR A […] ALVEOLAR LUNG-ON-A-CHIP MODEL” (priority 2021, published 2024)

test system: SARS-COV-2 pseudoviral particle (pCoV-VP); assay type: cell-based

Row | Compound | decrease of cytopathic effects of pCoV-VPs (MTS assay)
1 | CCN(CC)Cc1cc(Nc2ccnc3cc(Cl)ccc23)ccc1O [amodiaquine] | approximately 21.4%
2 | CCN(CCO)CCCC(C)Nc1ccnc2cc(Cl)ccc12 (stereo not drawn) [hydroxychloroquine] | ~11.3%
3 | CCC(CC)COC(=O)[C@H](C)N[P@](=O)(OC[C@H]1O[C@@](C#N)(c2ccc3c(N)ncnn23)[C@H](O)[C@@H]1O)Oc1ccccc1 [remdesivir] | ~30.0%
